Literature values as cited in patent publication US20190350224A1, “METHOD FOR IMPROVING MUSCLE FORCE OR PHYSICAL FUNCTION” (University of Washington, priority 2018, published 2019).

Settings: against reactive oxygen species

CC1=C(/C=C/C(C)=C/C=C/C(C)=C/C=C/C=C(C)/C=C/C=C(C)/C=C/C2=C(C)C(=O)C(O)CC2(C)C)C(C)(C)CC(O)C1=O (stereo not drawn) [astaxanthin, 3,3′-dihydroxy-β,β-carotene-4,4′-dione]
antioxidant action relative to n-carotene: about 40 times
